Literature values as cited in patent US10195257B2 (Qantu Therapeutics, Inc., priority 2013, dated 2019).

Columns and labels:
T cells = details: in vivo
OVA-specific CTLs = details: mice immunized with OVA plus adjuvant
Aβ = details: without any adjuvant, administered intra-nasally

For O=Cc1c(O)cccc1OCc1ccc(C(=O)O)cc1 [tucaresol, 4-(2-formyl-3-hydroxyphenoxymethylbenzoic acid)], the “type of immunity favored” value (T cells) is given as “favors a Th1-biased immunity with a Th1-type cytokine profile and concomitant CTL production”.

In the case of QS-21, the “immune response type and CTL production” value (OVA-specific CTLs) is given as “Th1 immune response with the concomitant production of OVA-specific CTLs”.

For “Aβ40: main Aβ peptide that contains amino acid residues from 1 to 40”, the “immune response and Aβ plaques” value (Aβ) is listed as “Th2 immune response and reduced levels of Aβ plaques”.
